Measured values from patent publication US10793580B2, “Substituted pyrazoloazepin-8-ones and their use as phosphodiesterase inhibitors” (LEO Pharma A/S, priority 2016, dated 2020).

What follows are molecules tested against human PDE4D catalytic domain (Homo sapiens (Human), UniProt Q08499) (assay: PDE4 Assay (TR-FRET, FAM-cAMP cleavage)). Conditions: Table 16, Examples 277-296; read-out: PDE4 IC50 range.
Chain of human PDE4D catalytic domain (Q08499 380-740): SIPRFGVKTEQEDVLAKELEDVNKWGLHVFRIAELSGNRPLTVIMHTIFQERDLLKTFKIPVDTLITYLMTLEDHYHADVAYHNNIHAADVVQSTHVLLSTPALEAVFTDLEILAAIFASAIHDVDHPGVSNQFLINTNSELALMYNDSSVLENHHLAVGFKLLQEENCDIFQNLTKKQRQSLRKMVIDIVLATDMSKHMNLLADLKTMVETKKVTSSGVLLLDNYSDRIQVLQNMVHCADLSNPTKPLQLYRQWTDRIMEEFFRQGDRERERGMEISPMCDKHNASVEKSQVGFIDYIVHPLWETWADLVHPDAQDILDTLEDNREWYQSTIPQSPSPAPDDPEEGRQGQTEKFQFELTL
Format: biochemical
Procedure, shortened: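 Readout is Tb-to-FAM time-resolved FRET after nanoparticle capture of AMP, the product of cleaving a cAMP/FAM-cAMP mixture by PDE4D catalytic domain (S380-L740) in the presence of titrated compound. Values are IC50 ranges in nM: concentration halving substrate cleavage relative to controls.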
`CCn1nc(C[C@@H](C)COC(=O)C2CCOCC2)c2c1C(=O)NCC1(CCOCC1)C2` [Example 287, [(2R)-3-(1-ethyl-8-oxo-spiro[6,7-dihydro-4H-pyrazolo[3,4-c]azepine-5,4′-tetrahydropyran]-3-yl)-2-methyl-propyl] tetrahydropyran-4-carboxylate] was tested, and the IC50 was less than 100 nM. With `CCn1nc(C[C@@H](C)COC(=O)c2cncs2)c2c1C(=O)NCC1(CCOCC1)C2` [Example 286, [(2R)-3-(1-ethyl-8-oxo-spiro[6,7-dihydro-4H-pyrazolo[3,4-c]azepine-5,4′-tetrahydropyran]-3-yl)-2-methyl-propyl] thiazole-5-carboxylate] the IC50 was less than 100 nM. Molecule `CCn1nc(C[C@@H](C)COC(=O)c2cnn(C)c2)c2c1C(=O)NCC1(CCOCC1)C2` [Example 279, [(2R)-3-(1-ethyl-8-oxo-spiro[6,7-dihydro-4H-pyrazolo[3,4-c]azepine-5,4′-tetrahydropyran]-3-yl)-2-methyl-propyl] 1-methylpyrazole-4-carboxylate] has an IC50 of less than 100 nM. Molecule `CCn1nc(C[C@@H](C)COC(=O)c2cc(C)nc(C)c2)c2c1C(=O)NCC1(CCOCC1)C2` [Example 293, [(2R)-3-(1-ethyl-8-oxo-spiro[6,7-dihydro-4H-pyrazolo[3,4-c]azepine-5,4′-tetrahydropyran]-3-yl)-2-methyl-propyl] 2,6-dimethylpyridine-4-carboxylate] has an IC50 of less than 100 nM.

Same assay, conditions: Table 17, Examples 297-316; read-out: PDE4 IC50 range
`CCn1nc(CC(C)(C)COC(=O)c2cnc(C)o2)c2c1C(=O)NCC1(CCOCC1)C2` [Example 302, [3-(1-ethyl-8-oxo-spiro[6,7-dihydro-4H-pyrazolo[3,4-c]azepine-5,4′-tetrahydropyran]-3-yl)-2,2-dimethyl-propyl] 2-methyloxazole-5-carboxylate] showed an IC50 of less than 100 nM. Molecule `CCn1nc(CC(C)(C)COC(=O)C2CCN(C)CC2)c2c1C(=O)NCC1(CCOCC1)C2` [Example 312, [3-(1-ethyl-8-oxo-spiro[6,7-dihydro-4H-pyrazolo[3,4-c]azepine-5,4′-tetrahydropyran]-3-yl)-2,2-dimethyl-propyl] 1-methylpiperidine-4-carboxylate] has an IC50 of 100 to 500 nM.

Same assay, conditions: human PDE4D catalytic domain (UniProt Q08499 [S380-L740]); 50% inhibition of substrate cleavage; read-out: PDE4 IC50 range
`CCn1nc(CCCOC(=O)c2ccc(Cl)cc2F)c2c1C(=O)NCC1(CCOCC1)C2` [Example 53, 3-(1-ethyl-8-oxo-spiro[6,7-dihydro-4H-pyrazolo[3,4-c]azepine-5,4′-tetrahydropyran]-3-yl)propyl 4-chloro-2-fluoro-benzoate] showed an IC50 of less than 100 nM. In the case of `CCn1nc(CC(C)(C)COC(=O)CCSC)c2c1C(=O)NCC1(CCOCC1)C2` [Example 187, [3-(1-ethyl-8-oxo-spiro[6,7-dihydro-4H-pyrazolo[3,4-c]azepine-5,4′-tetrahydropyran]-3-yl)-2,2-dimethyl-propyl] 3-methylsulfanylpropanoate], the IC50 is reported as less than 100 nM. With `CCn1nc(CCCOC(=O)c2ccc(OC)c(Cl)c2)c2c1C(=O)NCC1(CCOCC1)C2` [Example 58, 3-(1-ethyl-8-oxo-spiro[6,7-dihydro-4H-pyrazolo[3,4-c]azepine-5,4′-tetrahydropyran]-3-yl)propyl 3-chloro-4-methoxy-benzoate] the IC50 was less than 100 nM. Molecule `CCn1nc(CCCOC(=O)c2cccc(Cl)c2F)c2c1C(=O)NCC1(CCOCC1)C2` [Example 50, 3-(1-ethyl-8-oxo-spiro[6,7-dihydro-4H-pyrazolo[3,4-c]azepine-5,4′-tetrahydropyran]-3-yl)propyl 3-chloro-2-fluoro-benzoate] has an IC50 of less than 100 nM. With `CCn1nc(CC(C)(C)COC(=O)CCS(C)(=O)=O)c2c1C(=O)NCC1(CCOCC1)C2` [Example 199, [3-(1-ethyl-8-oxo-spiro[6,7-dihydro-4H-pyrazolo[3,4-c]azepine-5,4′-tetrahydropyran]-3-yl)-2,2-dimethyl-propyl] 3-methylsulfonylpropanoate] the IC50 was less than 100 nM. Molecule `CCn1nc(CC(C)(C)COC(=O)c2cccc(C(=O)NC)c2)c2c1C(=O)NCC1(CCOCC1)C2` [Example 228, [3-(1-ethyl-8-oxo-spiro[6,7-dihydro-4H-pyrazolo[3,4-c]azepine-5,4′-tetrahydropyran]-3-yl)-2,2-dimethyl-propyl] 3-(methylcarbamoyl)benzoate] has an IC50 of less than 100 nM. `CCn1nc(CCCOC(=O)c2ccc(Cl)cc2OC)c2c1C(=O)NCC1(CCOCC1)C2` [Example 61, 3-(1-ethyl-8-oxo-spiro[6,7-dihydro-4H-pyrazolo[3,4-c]azepine-5,4′-tetrahydropyran]-3-yl)propyl 4-chloro-2-methoxy-benzoate] was tested, and the IC50 was less than 100 nM. For `CCn1nc(CCCOC(=O)c2cc(OC)ccc2Cl)c2c1C(=O)NCC1(CCOCC1)C2` [Example 56, 3-(1-ethyl-8-oxo-spiro[6,7-dihydro-4H-pyrazolo[3,4-c]azepine-5,4′-tetrahydropyran]-3-yl)propyl 2-chloro-5-methoxy-benzoate], the IC50 was less than 100 nM. For `CCn1nc(CCCOC(=O)c2cccc(S(=O)(=O)NC)c2)c2c1C(=O)NCC1(CCOCC1)C2` [Example 78, 3-(1-ethyl-8-oxo-spiro[6,7-dihydro-4H-pyrazolo[3,4-c]azepine-5,4′-tetrahydro-pyran]-3-yl)propyl 3-(methylsulfamoyl)benzoate], the IC50 was less than 100 nM. `CCn1nc(CCCOC(=O)c2cc(C(F)(F)F)ccc2Cl)c2c1C(=O)NCC1(CCOCC1)C2` [Example 91, 3-(1-ethyl-8-oxo-spiro[6,7-dihydro-4H-pyrazolo[3,4-c]azepine-5,4′-tetrahydro-pyran]-3-yl)propyl 2-chloro-5-(trifluoromethyl)benzoate] showed an IC50 of less than 100 nM. With `CCn1nc(CCOC(=O)c2ccc(S(C)(=O)=O)cc2)c2c1C(=O)NCC1(CCOCC1)C2` [Example 136, 2-(1-ethyl-8-oxo-spiro-[6,7-dihydro-4H-pyrazolo-[3,4-c]azepine-5,4′-tetra-hydropyran]-3-yl)ethyl 4-methylsulfonylbenzoate] the IC50 was less than 100 nM. With `CCn1nc(C[C@@H](C)COC(=O)c2ccc(C(=O)N3CCCCC3)cc2)c2c1C(=O)NCC1(CCOCC1)C2` [Example 173, [(2R)-3-(1-ethyl-8-oxo-spiro[6,7-dihydro-4H-pyrazolo[3,4-c]azepine-5,4′-tetrahydropyran]-3-yl)-2-methyl-propyl] 4-(piperidine-1-carbonyl)benzoate] the IC50 was less than 100 nM. With `CCn1nc(CCCOC(=O)c2cnc(C)s2)c2c1C(=O)NCC1(CCOCC1)C2` [Example 255, 3-(1-ethyl-8-oxo-spiro[6,7-dihydro-4H-pyrazolo[3,4-c]azepine-5,4′-tetrahydropyran]-3-yl)propyl 2-methylthiazole-5-carboxylate] the IC50 was less than 100 nM. `CCn1nc(CCCOC(=O)C2CCN(C(=O)N(C)C)CC2)c2c1C(=O)NCC1(CCOCC1)C2` [Example 264, 3-(1-ethyl-8-oxo-spiro[6,7-dihydro-4H-pyrazolo[3,4-c]azepine-5,4′-tetrahydro-pyran]-3-yl)propyl 1-(dimethyl-carbamoyl)piperidine-4-carboxylate] was tested, and the IC50 was less than 100 nM. Molecule `CCn1nc(CCCOC(=O)c2ccc(S(=O)(=O)NC)cc2)c2c1C(=O)NCC1(CCOCC1)C2` [Example 1, 3-(1-Ethyl-8-oxo-spiro[6,7-dihydro-4H-pyrazolo[3,4-c]azepine-5,4′-tetrahydropyran]-3-yl)propyl 4-(methylsulfamoyl)benzoate] has an IC50 of less than 100 nM. `CCn1nc(CCCOC(=O)c2cc(F)cc(C#N)c2)c2c1C(=O)NCC1(CCOCC1)C2` [Example 29, 3-(1-ethyl-8-oxo-spiro[6,7-dihydro-4H-pyrazolo[3,4-c]azepine-5,4′-tetrahydropyran]-3-yl)propyl 3-cyano-5-fluoro-benzoate] was tested, and the IC50 was less than 100 nM. Molecule `CCn1nc(CCCOC(=O)c2cccc(C(=O)N(C)C)c2)c2c1C(=O)NCC1(CCOCC1)C2` [Example 115, 3-(1-ethyl-8-oxo-spiro[6,7-dihydro-4H-pyrazolo[3,4-c]azepine-5,4′-tetrahydropyran]-3-yl)propyl 3-(dimethyl-carbamoyl)benzoate] has an IC50 of less than 100 nM. `CCn1nc(CC(C)(C)COC(=O)c2ccc(S(=O)(=O)N3CCCC3)cc2)c2c1C(=O)NCC1(CCOCC1)C2` [Example 211, [3-(1-ethyl-8-oxo-spiro[6,7-dihydro-4H-pyrazolo[3,4-c]azepine-5,4′-tetrahydropyran]-3-yl)-2,2-dimethyl-propyl] 4-pyrrolidin-1-ylsulfonylbenzoate] gave an IC50 of less than 100 nM. In the case of `CCn1nc(CCCOC(=O)c2ccc(OC)cc2)c2c1C(=O)NCC1(CCOCC1)C2` [Example 16, 3-(1-ethyl-8-oxo-spiro[6,7-dihydro-4H-pyrazolo[3,4-c]azepine-5,4′-tetrahydropyran]-3-yl)propyl 4-methoxybenzoate], the IC50 is reported as less than 100 nM. For `CCn1nc(CCCOC(=O)c2ccc(S(N)(=O)=O)cc2)c2c1C(=O)NCC1(CCOCC1)C2` [Example 65, 3-(1-ethyl-8-oxo-spiro[6,7-dihydro-4H-pyrazolo[3,4-c]azepine-5,4′-tetrahydropyran]-3-yl)propyl 4-sulfamoylbenzoate], the IC50 was less than 100 nM. Work on `CCn1nc(CCCOC(=O)c2ccc(Cl)cc2C)c2c1C(=O)NCC1(CCOCC1)C2` [Example 43, 3-(1-ethyl-8-oxo-spiro[6,7-dihydro-4H-pyrazolo[3,4-c]azepine-5,4′-tetrahydropyran]-3-yl)propyl 4-chloro-2-methyl-benzoate] yielded an IC50 of less than 100 nM. Molecule `CCn1nc(CCCOC(=O)c2cccc(S(N)(=O)=O)c2)c2c1C(=O)NCC1(CCOCC1)C2` [Example 66, 3-(1-ethyl-8-oxo-spiro[6,7-dihydro-4H-pyrazolo[3,4-c]azepine-5,4′-tetrahydropyran]-3-yl)propyl 3-sulfamoylbenzoate] has an IC50 of less than 100 nM. Molecule `CCn1nc(CCCOC(=O)c2ccc(OC)cc2F)c2c1C(=O)NCC1(CCOCC1)C2` [Example 38, 3-(1-ethyl-8-oxo-spiro[6,7-dihydro-4H-pyrazolo[3,4-c]azepine-5,4′-tetrahydropyran]-3-yl)propyl 2-fluoro-4-methoxy-benzoate] has an IC50 of less than 100 nM. In the case of `CCn1nc(CC(C)(C)COC(=O)c2cccc(C)c2)c2c1C(=O)NCC1(CCOCC1)C2` [Example 190, [3-(1-ethyl-8-oxo-spiro[6,7-dihydro-4H-pyrazolo[3,4-c]azepine-5,4′-tetrahydropyran]-3-yl)-2,2-dimethyl-propyl] 3-methylbenzoate], the IC50 is reported as less than 100 nM.
